This passage reports IC50 results from patent publication US9499495B2, “Quinazolines and azaquinazolines as dual inhibitors of RAS/RAF/MEK/ERK and PI3K/AKT/PTEN/mTOR pathways” (Asana Biosciences, LLC, priority 2013, dated 2016).

For one test, the target named is T1, PI3Kα (Homo sapiens, UniProt P42336).
T1 construct: made in house; host or cells: SF9 cells
In words: PI3 Kinase alpha TR-FRET assay. Type of test: biochemical. Here is the method: Compound inhibition for PI3Kα was determined in a homogeneous TR-FRET assay using a PI3Kα assay kit (Millipore, US, Catalog #33-016). The PI3 kinase catalyzes phosphorylation of […] (PIP2) to phosphatidylinositol 3,4,5-trisphosphate (PIP3) in the presence of ATP and Mg^2+. The PIP3 product is detected by displacement of biotin-PIP3 from an energy transfer complex consisting of Europium labeled anti-GST monoclonal antibody, a GST-tagged pleckstrin homology (PH) domain, biotinylated PIP3 and Streptavidin-Allophycocyanin (APC). Excitation of Europium in the complex results in an energy transfer to the APC and a fluorescence emission at 665 nm.
Compounds tested were dissolved in DMSO and directly distributed into 384-well plates at a volume of 0.5 μL. P110/P85a/PIP2 mixture (14.5 μL) was added to compound wells and incubated for 30 min at rt […]. P110/P85a was expressed in SF9 cells and purified in-house. 5 ng P110/P85a was used in the assay. The kinase reaction was started by the addition of ATP. The assay concentrations of both PIP2 and ATP were 40 μM. The reaction mixture was incubated for 30 min and was terminated by the addition of stop mix and detection mix. Fluorescence was measured at 615 and 665 nm upon excitation at 340 nm in a Victor V5 fluorometer (Perkin Elmer, US). The fluorescence emission ratio at 665 to 615 nm, proportional to the kinase activity, was plotted against the compound concentration to generate dose-response curves and IC50 values were determined.
In general terms: In TR-FRET formats the signal depends on donor and acceptor labels being close together.

A further test deals with T2, B-RAFV600E (Homo sapiens, UniProt P15056, V600E).
T2 construct: purchased Millipore, USA 14-557
In words: B-RAFV600E radiometric assay. Type of test: biochemical. The note with it: read-out: Kinase assay B-Raf. The procedure, abridged:
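B-RAFV600E was preincubated 45 min at rt with compound in 1% DMSO. MEK-K97M (0.5 μg), 5 μM final cold ATP and [γ-32P]ATP were then added for 2 h at rt. Phosphorylated MEK was captured on P81 paper and scintillation-counted; IC50 came from a sigmoidal dose-response fit.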

Another test deals with T3, mTOR kinase (Homo sapiens, UniProt P42345).
T3 construct: purchased Millipore, US
Description: mTOR kinase TR-FRET assay. Type of test: biochemical. The procedure, abridged:
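TR-FRET with ULight-p70 S6K (Thr 389) peptide (50 nM) and 20 μM ATP in 50 mM HEPES pH 7.5, 1 mM EGTA, 3 mM MnCl2; compound pre-incubated with enzyme before substrate addition, reaction at rt, EDTA-stopped. Eu anti-phospho antibody read 665/615 nm; IC50 from sigmoidal dose-response fit.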

A further test deals with pERK in A375 cells. In words: In Cell Western (ICW) assay, pERK in A375 cells. Format: cell-based. To be noted: Homo sapiens, A-375, 3 h treatment. The method in brief:
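RKO or A375 cells were exposed to compounds for 3 h at 37 °C, then fixed and stained in-cell with antibodies to pERK1/2 (T202/Y204), pS6RP or pAKT T308, followed by a Eu-labelled secondary. Time-resolved fluorescence (340/615 nm) was normalized to Hoechst, and IC50 values were fitted sigmoidally against DMSO as 0% inhibition.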

For the next test, the system named is A375 cells. Description: XTT assay for cell viability, A375 cells. Type of test: cell-based. The note with it: Homo sapiens, A-375, 72 h. How it is done:
Cell lines (A375 ATCC No. CRL-1619, A2058 ATCC No. CRL-11147 and RKO ATCC No. CRL-2577, American Type Culture Collection (ATCC), Manassas Va.) once attaining ˜80% confluency were trypsinized, centrifuged and resuspended in fresh media. Cells (1000-2000/per well) were seeded in 96-well plate and incubated over-night at 37° C. in a 5% CO2 incubator. Compound dilutions were prepared in 100% DMSO followed by dilutions in the respective media. The cells were treated with NCEs for 72 h at 37° C. in 5% CO2 incubator. After 72 h, freshly prepared XTT (1 mg/ml)/PMS (25 μM) solution was added, incubated for 2 to 3 h at 37° C. and the absorbance was measured at 450 nm using an ELISA plate reader. Keeping DMSO control as 100%, the effect of the compound to inhibit the cell proliferation was calculated and the GI50 values were determined using sigmoidal dose response curve fit in GraphPad Prism® v5 software.

Each structure is given as a SMILES string.

T1 sequence (P42336 whole entry, species assumed): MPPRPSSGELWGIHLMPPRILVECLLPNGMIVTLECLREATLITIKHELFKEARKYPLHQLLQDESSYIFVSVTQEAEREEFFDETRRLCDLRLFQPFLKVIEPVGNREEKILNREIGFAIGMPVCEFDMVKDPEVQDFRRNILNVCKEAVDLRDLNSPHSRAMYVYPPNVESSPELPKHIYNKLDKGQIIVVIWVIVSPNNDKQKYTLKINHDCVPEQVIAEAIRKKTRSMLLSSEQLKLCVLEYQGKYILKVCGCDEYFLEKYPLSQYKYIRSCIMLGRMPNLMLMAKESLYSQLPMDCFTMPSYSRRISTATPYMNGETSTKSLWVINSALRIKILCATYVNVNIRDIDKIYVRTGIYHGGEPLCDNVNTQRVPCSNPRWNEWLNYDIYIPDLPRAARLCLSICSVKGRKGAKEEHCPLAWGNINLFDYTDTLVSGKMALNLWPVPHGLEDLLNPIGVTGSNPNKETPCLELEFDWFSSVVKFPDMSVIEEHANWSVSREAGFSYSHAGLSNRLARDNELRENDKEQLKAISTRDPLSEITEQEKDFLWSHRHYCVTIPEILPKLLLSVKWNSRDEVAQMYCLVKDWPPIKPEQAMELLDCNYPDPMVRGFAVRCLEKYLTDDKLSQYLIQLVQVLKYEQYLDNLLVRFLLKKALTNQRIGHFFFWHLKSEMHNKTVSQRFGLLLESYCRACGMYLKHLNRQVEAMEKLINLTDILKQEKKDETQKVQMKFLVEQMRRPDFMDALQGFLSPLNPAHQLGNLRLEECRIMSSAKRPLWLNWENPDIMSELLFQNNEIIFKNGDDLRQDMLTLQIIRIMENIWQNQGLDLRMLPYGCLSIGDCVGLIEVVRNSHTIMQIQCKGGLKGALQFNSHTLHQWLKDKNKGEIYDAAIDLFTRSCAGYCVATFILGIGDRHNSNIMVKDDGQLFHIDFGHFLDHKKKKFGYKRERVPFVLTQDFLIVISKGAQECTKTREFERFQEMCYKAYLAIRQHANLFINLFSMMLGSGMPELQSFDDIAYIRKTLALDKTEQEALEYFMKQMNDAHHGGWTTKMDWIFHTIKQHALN
T1 sequence (P27986 whole entry partner, species assumed): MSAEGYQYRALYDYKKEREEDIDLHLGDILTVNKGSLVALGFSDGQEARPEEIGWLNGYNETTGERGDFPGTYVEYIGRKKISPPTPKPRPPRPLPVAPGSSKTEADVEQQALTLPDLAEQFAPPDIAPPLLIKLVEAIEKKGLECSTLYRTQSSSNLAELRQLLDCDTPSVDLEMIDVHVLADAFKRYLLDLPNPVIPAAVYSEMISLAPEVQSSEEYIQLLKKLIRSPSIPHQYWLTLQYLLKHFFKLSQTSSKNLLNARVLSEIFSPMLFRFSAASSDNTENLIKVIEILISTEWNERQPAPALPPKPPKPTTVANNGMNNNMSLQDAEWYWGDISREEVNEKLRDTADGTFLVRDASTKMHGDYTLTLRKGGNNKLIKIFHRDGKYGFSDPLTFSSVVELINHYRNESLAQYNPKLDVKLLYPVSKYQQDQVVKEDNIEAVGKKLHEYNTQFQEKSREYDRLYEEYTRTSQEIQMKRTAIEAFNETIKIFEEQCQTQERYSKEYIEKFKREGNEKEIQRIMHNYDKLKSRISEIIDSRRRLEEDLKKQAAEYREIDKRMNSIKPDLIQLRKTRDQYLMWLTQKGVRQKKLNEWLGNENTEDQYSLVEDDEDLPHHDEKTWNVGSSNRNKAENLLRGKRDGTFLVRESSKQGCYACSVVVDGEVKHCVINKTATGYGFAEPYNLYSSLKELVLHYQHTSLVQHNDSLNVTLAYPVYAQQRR
T3 sequence (P42345 1362-2549 limits assumed): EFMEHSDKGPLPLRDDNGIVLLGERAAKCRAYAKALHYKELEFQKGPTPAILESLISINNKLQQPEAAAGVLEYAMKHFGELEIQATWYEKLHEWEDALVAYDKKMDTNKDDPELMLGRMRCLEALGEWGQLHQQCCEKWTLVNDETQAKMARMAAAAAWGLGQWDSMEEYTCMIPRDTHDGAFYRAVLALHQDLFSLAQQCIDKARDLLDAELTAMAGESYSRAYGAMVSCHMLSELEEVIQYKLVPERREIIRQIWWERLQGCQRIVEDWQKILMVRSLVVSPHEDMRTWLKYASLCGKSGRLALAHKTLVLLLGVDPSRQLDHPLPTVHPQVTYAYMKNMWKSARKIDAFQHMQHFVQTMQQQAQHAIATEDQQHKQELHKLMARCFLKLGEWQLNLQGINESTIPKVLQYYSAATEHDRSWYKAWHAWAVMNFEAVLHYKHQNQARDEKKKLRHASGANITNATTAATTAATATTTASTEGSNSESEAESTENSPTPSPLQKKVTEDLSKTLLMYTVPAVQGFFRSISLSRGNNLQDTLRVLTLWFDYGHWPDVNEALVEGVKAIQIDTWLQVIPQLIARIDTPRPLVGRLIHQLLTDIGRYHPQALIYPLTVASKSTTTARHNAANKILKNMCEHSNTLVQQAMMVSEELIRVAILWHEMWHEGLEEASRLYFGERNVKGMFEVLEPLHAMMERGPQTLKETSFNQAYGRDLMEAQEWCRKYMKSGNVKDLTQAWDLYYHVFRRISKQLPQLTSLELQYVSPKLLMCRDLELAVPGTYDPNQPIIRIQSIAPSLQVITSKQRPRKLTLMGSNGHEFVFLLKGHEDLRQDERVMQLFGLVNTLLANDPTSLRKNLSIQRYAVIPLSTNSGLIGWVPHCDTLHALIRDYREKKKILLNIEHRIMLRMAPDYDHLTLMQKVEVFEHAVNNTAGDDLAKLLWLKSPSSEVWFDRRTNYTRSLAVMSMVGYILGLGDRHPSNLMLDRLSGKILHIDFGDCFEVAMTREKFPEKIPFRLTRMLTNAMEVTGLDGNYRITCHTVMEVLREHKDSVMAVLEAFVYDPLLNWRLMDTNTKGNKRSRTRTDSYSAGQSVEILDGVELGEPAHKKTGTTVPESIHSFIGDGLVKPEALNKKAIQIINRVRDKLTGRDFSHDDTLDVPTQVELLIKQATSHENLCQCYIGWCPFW
T2 sequence (P15056 416-766 V600E limits assumed): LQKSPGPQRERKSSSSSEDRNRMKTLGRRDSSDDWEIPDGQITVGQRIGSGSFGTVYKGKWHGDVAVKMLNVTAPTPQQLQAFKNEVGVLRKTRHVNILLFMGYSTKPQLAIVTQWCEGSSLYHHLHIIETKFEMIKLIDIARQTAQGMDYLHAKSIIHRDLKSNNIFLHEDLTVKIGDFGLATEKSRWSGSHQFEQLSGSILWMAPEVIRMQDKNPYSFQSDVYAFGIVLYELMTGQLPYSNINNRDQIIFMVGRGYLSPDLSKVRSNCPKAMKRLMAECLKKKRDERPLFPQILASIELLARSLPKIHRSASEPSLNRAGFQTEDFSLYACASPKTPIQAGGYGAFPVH

`CCCNc1ncc(-c2nc(N3CCOCC3)c3nc(-c4cccc(NS(=O)(=O)CCCF)c4F)ccc3n2)cn1` [Example 112, 3-fluoro-N-(2-fluoro-3-(4-morpholino-2-(2-(propylamino)pyrimidin-5-yl)pyrido[3,2-d]pyrimidin-6-yl)phenyl)propane-1-sulfonamide]: the IC50 against PI3Kα lay within 100 to 1000 nM; at B-RAFV600E it was 1 to 100 nM.
`Cc1nc(N)ncc1-c1nc(N2CCOC[C@@H]2C)c2nc(-c3cccc(NS(=O)(=O)CCCF)c3F)ccc2n1` [Example 131, (S)-N-(3-(2-(2-amino-4-methylpyrimidin-5-yl)-4-(3-methylmorpholino)pyrido[3,2-d]pyrimidin-6-yl)-2-fluorophenyl)-3-fluoropropane-1-sulfonamide]: the IC50 on PI3Kα was 1 to 100 nM; against mTOR kinase, 100 to 1000 nM; in the test with pERK in A375 cells, 100 to 1000 nM; on B-RAFV600E, 100 to 1000 nM.
For the compound `CCNc1ncc(-c2nc(N3CCOCC3)c3nc(-c4cccc(NS(=O)(=O)CCCF)c4F)ccc3n2)cn1` [Example 122, N-(3-(2-(2-(ethylamino)pyrimidin-5-yl)-4-morpholinopyrido[3,2-d]pyrimidin-6-yl)-2-fluorophenyl)-3-fluoropropane-1-sulfonamide], the IC50 on PI3Kα was in the range of 100 to 1000 nM; on B-RAFV600E it was 1 to 100 nM.
Regarding `CCCS(=O)(=O)Nc1cccc(-c2cc(OC)c3nc(-c4cnc(N)cc4C(F)(F)F)nc(N4CCOCC4)c3c2)c1F` [Example 25, N-(3-(2-(6-amino-4-(trifluoromethyl)pyridin-3-yl)-8-methoxy-4-morpholinoquinazolin-6-yl)-2-fluorophenyl)propane-1-sulfonamide], the IC50 at PI3Kα, in the test with pERK in A375 cells and at B-RAFV600E was 100 to 1000 nM throughout.
On to `O=S(=O)(CCCF)Nc1cccc(-c2ccc3nc(-c4cccc5[nH]ncc45)nc(N4CCOCC4)c3n2)c1F` [Example 89, N-(3-(2-(1H-indazol-4-yl)-4-morpholinopyrido[3,2-d]pyrimidin-6-yl)-2-fluorophenyl)-3-fluoropropane-1-sulfonamide], for which the IC50 on PI3Kα was 100 to 1000 nM; against mTOR kinase, 100 to 1000 nM; at B-RAFV600E it was 1 to 100 nM.
`O=S(=O)(CCCF)Nc1cccc(-c2ccc3nc(-c4cnc5[nH]ccc5c4)nc(N4CCOCC4)c3n2)c1F` [Example 91, 3-fluoro-N-(2-fluoro-3-(4-morpholtno-2-(1H-pyrrolo[2,3-b]pyrldin-5-yl)pyrido[3,2-d]pyrimidin-6-yl)phenyl)propane-1-sulfonamide]: the IC50 against PI3Kα, on mTOR kinase and on B-RAFV600E was 1 to 100 nM each time.
Take `CCCS(=O)(=O)Nc1cccc(-c2cc(OC)c3nc(-c4cnc(N)c(Cl)c4)nc(N4CCOCC4)c3c2)c1F` [Example 48, N-(3-(2-(6-amino-5-chloropyridin-3-yl)-8-methoxy-4-morpholinoquinazolin-6-yl)-2-fluorophenyl)propane-1-sulfonamide]: the IC50 at PI3Kα was 100 to 1000 nM; at B-RAFV600E, 1 to 100 nM.
Turning to `CNc1ncc(-c2nc(N3CCOCC3)c3nc(-c4cccc(NS(=O)(=O)CCCF)c4F)ccc3n2)cn1` [Example 121, 3-fluoro-N-(2-fluoro-3-(2-(2-(methylamino)pyrimidin-5-yl)-4-morpholinopyrido[3,2-d]pyrimidin-6-yl)phenyl)propane-1-sulfonamide], the IC50 against PI3Kα is 1 to 100 nM; at mTOR kinase, 100 to 1000 nM; with pERK in A375 cells, 100 to 1000 nM; on B-RAFV600E it was 1 to 100 nM.
Turning to `Nc1ncc(-c2nc(N3CCOCC3)c3nc(-c4cccc(NS(=O)(=O)c5c(F)cccc5F)c4F)ccc3n2)cn1` [Example 98, N-(3-(2-(2-aminopyrimidin-5-yl)-4-morpholinopyrido[3,2-d]pyrimidin-6-yl)-2-fluorophenyl)-2,6-difluorobenzenesulfonamide], the IC50 at PI3Kα fell in the range of 1 to 100 nM; at mTOR kinase it was 100 to 1000 nM; on B-RAFV600E, 1 to 100 nM.
As to `CCCNc1ccc(-c2nc(N3CCOCC3)c3nc(-c4cccc(NS(=O)(=O)CCCF)c4F)ccc3n2)cn1` [Example 115, 3-fluoro-N-(2-fluoro-3-(4-morpholino-2-(6-(propylamino)pyridin-3-yl)pyrido[3,2-d]pyrimidin-6-yl)phenyl)propane-1-sulfonamide], the results for the IC50 against PI3Kα, against mTOR kinase and on B-RAFV600E were 100 to 1000 nM, 100 to 1000 nM and 1 to 100 nM, respectively.
As to `COc1cc(-c2c(F)ccc(NS(=O)(=O)CCCF)c2F)cc2c(N3CCOCC3)nc(-c3cnc(N)cc3C(F)(F)F)nc12` [Example 84, N-(3-(2-(6-amino-4-(trifluoromethyl)pyridin~3-yl)-8-methoxy-4-morpholinoquinazolin-6-yl)-2,4-difluorophenyl)-3-fluoropropane-1-sulfonamide], the IC50 is 100 to 1000 nM against PI3Kα and 1 to 100 nM at B-RAFV600E.
For the compound `C[C@@H]1COCCN1c1nc(-c2cnc(N)cc2C(F)(F)F)nc2ccc(-c3cccc(NS(=O)(=O)CCCF)c3F)nc12` [Example 107, (R)-N-(3-(2-(6-amlno-4-(trifluoromethyl)pyridin-3-yl)-4-(3-methylmorpholino)pyrido[3,2-d]pyrimidin-6-yl)-2-fluorophenyl)-3-fluoropropane-1-sulfonamide], the IC50 was in the range of 100 to 1000 nM on PI3Kα and 1 to 100 nM on B-RAFV600E.
Consider `COc1cc(-c2cccc(NS(=O)(=O)c3cc(F)ccc3F)c2F)cc2c(N3CCOCC3)nc(-c3ccc(N)nc3)nc12` [Example 28, N-(3-(2-(6-aminopyridin-3-yl)-8-methoxy-4-morpholinoquinazolin-6-yl)-2-fluorophenyl)-2,5-difluorobenzenesulfonamide], for which the IC50 in the test on A375 cells was 100 to 1000 nM; at mTOR kinase, 100 to 1000 nM; in the test with pERK in A375 cells it was 1 to 100 nM; on B-RAFV600E, 1 to 100 nM.
Turning to `COc1cc(-c2cccc(NS(=O)(=O)CCCF)c2F)cc2c(N3CCOC[C@@H]3C)nc(-c3ccc(N)nc3)nc12` [Example 41, (S)-N-(3-(2-(6-aminopyridin-3-yl)-8-methoxy-4-(3-methylmorpholino)quinazolin-6-yl)-2-fluorophenyl)-3-fluoropropane-1-sulfonamide], the IC50 was in the range of 100 to 1000 nM with A375 cells, 1 to 100 nM against mTOR kinase, 1 to 100 nM with pERK in A375 cells and 1 to 100 nM on B-RAFV600E.
As for `COc1cc(-c2c(F)ccc(NS(=O)(=O)c3c(F)cccc3F)c2F)cc2c(N3CCOCC3)nc(-c3ccc(N)nc3)nc12` [Example 77, N-(3-(2-(6-aminopyridin-3-yl)-8-methoxy-4-morpholinoquinazolin-6-yl)-2,4-difluorophenyl)-2,6-difluorobenzenesulfonamide], the IC50 with A375 cells fell in the range of 100 to 1000 nM; against mTOR kinase it was 100 to 1000 nM; with pERK in A375 cells, 100 to 1000 nM; on B-RAFV600E, 1 to 100 nM.
Consider `COc1cc(-c2cccc(NS(=O)(=O)c3ccccc3F)c2F)cc2c(N3CCOCC3)nc(-c3ccc(N)nc3)nc12` [Example 29, N-(3-(2-(6-aminopyridin-3-yl)-8-methoxy-4-morpholinoquinazolin-6-yl)-2-fluorophenyl)-2-fluorobenzenesulfonamide], for which the IC50 with A375 cells was 100 to 1000 nM; at mTOR kinase it was 100 to 1000 nM; with pERK in A375 cells, 1 to 100 nM; at B-RAFV600E it was 1 to 100 nM.
